According to patent US20080261902A1, “Pharmaceutical composition containing polydatin and its application” (Shenzhen Neptunus Pharmaceutical Co., Ltd., priority 2005, published 2008):
≈ marks a conversion by molar mass, not a printed value.

Assay: Solubility of polydatin in alcohol-propanediol-water mixed solvent (Embodiment 15)
Format: physicochemical
Conditions: for solubility at 8 h: aqueous with cosolvent or surfactant or cyclodextrin, thermodynamic from solid
Source text: 1. Materials: Anhydrous alcohol, analytically pure, Guangzhou No. 2 chemical reagent factory; 1,2-propanediol, analytically pure, Guangzhou No. 2 chemical reagent factory; purified water, […] industry city. 2. Method: Precisely measuring alcohol water solution of 45%, 60%, 75%(v/v), precisely adding propanediol at volume proportions of 10:1, 10:2, 10:2.5, 10:3, 10:4, preparing mixed solvents. The mixed solvents obtained contain propanediol of about 10%˜30%(v/v), alcohol of about 32%˜68%(v/v). Precisely measuring 20 ml of each above mixed solvent, adding polydatin of proper amount respectively, treating with ultrasonic for 20 min under 40° C., supersaturating the solution, placing for 8 h under room temperature, filtering with 0.45 μm microporous membrane, wherein the filtrates are saturated solutions of polydatin in different mixed solutions. Adopting HPLC method to determine content of polydatin in the filtrates and calculate solubility of polydatin referring to document 20.

OCC1OC(Oc2cc(O)cc(/C=C/c3ccc(O)cc3)c2)C(O)C(O)C1O [polydatin, 3,4′,5-trihydroxy-trans stilbene-3-β-D-glucoside]
solubility at 8 h (alcohol-propanediol-water mixed solvent, 45% alcohol water/propanediol 10/1): 27.8 mg/mL (≈ 71.2 mM) | solubility at 8 h (alcohol-propanediol-water mixed solvent, 45% alcohol water/propanediol 10/2): 34.3 mg/mL (≈ 87.9 mM) | solubility at 8 h (alcohol-propanediol-water mixed solvent, 45% alcohol water/propanediol 10/2.5): 39.5 mg/mL (≈ 101 mM) | solubility at 8 h (alcohol-propanediol-water mixed solvent, 45% alcohol water/propanediol 10/3): 42.4 mg/mL (≈ 109 mM) | solubility at 8 h (alcohol-propanediol-water mixed solvent, 45% alcohol water/propanediol 10/4): 52.2 mg/mL (≈ 134 mM) | solubility at 8 h (alcohol-propanediol-water mixed solvent, 60% alcohol water/propanediol 10/1): 55.7 mg/mL (≈ 143 mM) | solubility at 8 h (alcohol-propanediol-water mixed solvent, 60% alcohol water/propanediol 10/2): 66.4 mg/mL (≈ 170 mM) | solubility at 8 h (alcohol-propanediol-water mixed solvent, 60% alcohol water/propanediol 10/2.5): ~75 mg/mL (≈ 192 mM) | solubility at 8 h (alcohol-propanediol-water mixed solvent, 60% alcohol water/propanediol 10/3): 93.3 mg/mL (≈ 239 mM) | solubility at 8 h (alcohol-propanediol-water mixed solvent, 60% alcohol water/propanediol 10/4): 95.2 mg/mL (≈ 244 mM) | solubility at 8 h (alcohol-propanediol-water mixed solvent, 75% alcohol water/propanediol 10/1): 81.5 mg/mL (≈ 209 mM) | solubility at 8 h (alcohol-propanediol-water mixed solvent, 75% alcohol water/propanediol 10/2): 89.8 mg/mL (≈ 230 mM) | solubility at 8 h (alcohol-propanediol-water mixed solvent, 75% alcohol water/propanediol 10/2.5): 92.9 mg/mL (≈ 238 mM) | solubility at 8 h (alcohol-propanediol-water mixed solvent, 75% alcohol water/propanediol 10/3): 98.4 mg/mL (≈ 252 mM) | solubility at 8 h (alcohol-propanediol-water mixed solvent, 75% alcohol water/propanediol 10/4): 116 mg/mL (≈ 297 mM) | solubility at 8 h (alcohol-water solution without propanediol, 45% alcohol water, no propanediol (10/—)): 20.2 mg/mL (≈ 51.7 mM) | solubility at 8 h (alcohol-water solution without propanediol, 60% alcohol water, no propanediol (10/—)): 42.5 mg/mL (≈ 109 mM) | solubility at 8 h (alcohol-water solution without propanediol, 75% alcohol water, no propanediol (10/—)): 75.1 mg/mL (≈ 192 mM) | concentration of polydatin (mixed solvent of 60% alcohol-water and propanediol 10:2.0~10:4.0): higher than 60 mg/ml
